The nature of this data set: Stability in simulated gastric fluid (SGF). To be noted: 37° C., 1000 rpm. The data set is classed as physicochemical. As to the method:
Simulated gastric fluid (SGF), Manufacturer: Dongguan Chuangfeng Automation Technology Co., Ltd.; Product model: CF-006.
Oscillating constant temperature metal bath, Model: Thermo; Manufacturer: Digital Skaking Drybath.
Temperature: 37° C.; rotating speed: 1000 rpm; sampling time: 0, 4 hours.
Chromatographic column: Welch Xtimate C18 3.0×100 mm, 5 μm. Mobile phase: A: 0.04% trifluoroacetic acid (TFA)/H2O (v/v), B: acetonitrile (ACN). Gradient elution was performed according to the following table, flow rate: 1.0 mL/min; injection volume: 5 μL; column temperature: 35° C.; wavelength: 254 nm.
• (a) preparation of 0.04% TFA/H2O: 400 μL of TFA was measured, placed into 1 L of H2O, and homogenously mixed; • (b) Sample stock solution: about 3 mg of test sample was weighed, and prepared into a stock solution of 10 mmol/L using DMSO; • (c) 50 μL of the sample stock solution was taken, placed into a 5 mL volumetric flask, made up to the scale with the addition of SGF, and homogenously mixed. 400 μL of the solution was taken, four samples in parallel, and shaken at 1000 rpm and 37° C.; • (d) every two samples were taken after 0 and 4 hours respectively, 400 μL of acetonitrile was added, and homogenously mixed, followed by liquid phase injection, and calculation of the change % of the main peak area in the solution after 4 hours relative to 0 hour, two average value reports being taken at each time point.

In the case of `Cc1onc(-c2ccc(F)cc2)c1COc1ccc(-c2nnc3n2CCOC3)cn1` [Compound 17, 3-(6-((3-(4-fluorophenyl)-5-methylisoxazol-4-yl)methoxy)pyridin-3-yl)-5,6-dihydro-8H-[1,2,4]triazolo[3,4-c][1,4]oxazine], the “Residual content in simulated gastric juice after 4 hours (compared with 0 hour content)” value is recorded as 65% (4 hours).

`Cc1onc(-c2ccc(F)cc2)c1COc1ccc(-c2nnc3n2CCOC3)nn1` [Compound 18, 3-(6-((3-(4-fluorophenyl)-5-methylisoxazol-4-yl)methoxy)pyridazin-3-yl)-5,6-dihydro-8H-[1,2,4]triazolo[3,4-c][1,4]oxazine]: the “Residual content in simulated gastric juice after 4 hours (compared with 0 hour content)” value is given as 51% (4 hours).

On to `Cc1onc(-c2ccc(F)cc2)c1COc1cnc(-c2nnc3n2CCOC3)cn1` [Compound 19, 3-(5-((3-(4-fluorophenyl)-5-methylisoxazol-4-yl)methoxy)pyrazin-2-yl)-5,6-dihydro-8H-[1,2,4]triazolo[3,4-c][1,4]oxazine], for which the “Residual content in simulated gastric juice after 4 hours (compared with 0 hour content)” value is 94% (4 hours).

Take `Cc1onc(-c2ccc(F)cc2)c1COc1cnc(-c2nnc3n2CCC3)cn1` [Compound 23, 4-(((5-(6,7-dihydro-5H-pyrrolo[2,1-c][1,2,4]triazol-3-yl)pyrazin-2-yl)oxy)methyl)-3-(4-fluorophenyl)-5-methylisoxazole]: the “Residual content in simulated gastric juice after 4 hours (compared with 0 hour content)” value is given as 80% (4 hours).

Take `Cc1onc(-c2ccc(F)cc2)c1COc1cnc(-c2nnc3n2CCOCC3)cn1` [Compound 33, 3-(5-((3-(4-fluorophenyl)-5-methylisoxazol-4-yl)methoxy)pyrazin-2-yl)-5,6,8,9-tetrahydro-[1,2,4]triazolo[4,3-d][1,4]oxazepane]: the “Residual content in simulated gastric juice after 4 hours (compared with 0 hour content)” value is recorded as 91% (4 hours).

In the case of `Cc1onc(-c2ccc(F)cc2)c1COc1ccc(-c2cc3n(c(=O)n2)C[C@]24CO[C@H](CN32)C4)cn1` [Compound 38], the “Residual content in simulated gastric juice after 4 hours (compared with 0 hour content)” value was 75% (4 hours).

Regarding `Cc1onc(-c2ccc(F)cc2)c1COc1ccc(-c2cc3n(c(=O)n2)CCN3C)cn1` [Compound 41, 7-(6-((3-(4-fluorophenyl)-5-methylisoxazol-4-yl)methoxy)pyridin-3-yl)-1-methyl-2,3-dihydroimidazo[1,2-c]pyrimidin-5(1H)-one], the “Residual content in simulated gastric juice after 4 hours (compared with 0 hour content)” value is reported as 35% (4 hours).
